Experimental data taken from paper PMC8948292, “Combining PEGylated mito-atovaquone with MCT and Krebs cycle redox inhibitors as a potential strategy to abrogate tumor cell proliferation” (Scientific Reports, 2022).
Like-named read-outs stand apart in the source and are kept apart here.

Columns and labels:
[1] = tested on: MiaPaCa-2 cells; experiment: Intracellular oxidants: HPLC of hydroethidine (HE) oxidation products; format: cell-based, human; conditions: 24 h, with Mito-PEG5-ATO 0.05 µM, AZD-3965 200 µM or CPI-613 200 µM
Procedure: Hydroethidine (HE) or dihydroethidium was used as a fluorogenic probe to assess the cellular generation of superoxide and other peroxidatic oxidants[36],[37]. Cells were treated for 24 h with Mito-PEG5-ATO alone or in combination with AZD-3965 or CPI-613, followed by 1 h incubation with HE (10 µM). Cells were harvested and the cell pellet stored at − 80 °C until the day of high-performance liquid chromatography (HPLC) analysis. Sample preparation and HPLC analysis were performed as previously reported[32],[36]. 2-OH-E^+ was used as a specific marker for superoxide, and E^+-E^+ was used as a specific marker for intracellular one-electron oxidants[36],[37].
HE was purchased from Invitrogen (Carlsbad, CA). Stock solutions (20 mM and 5 mM, respectively) were prepared in deoxygenated DMSO (dimethyl sulfoxide) and stored at − 80 °C until use. Ethidium cation (bromide salt) was purchased from Sigma-Aldrich. The hydroxylated oxidation products from HE (2-OH-E^+) were prepared by reacting the probes with Fremy’s salt as previously described in detail[70],[71]. The dimeric products were prepared by reacting the probes with excess potassium ferricyanide, as detailed elsewhere. Synthesized standards of all oxidation products of HE were purified by HPLC. HPLC-based measurements of HE and its oxidation products were performed using an Agilent 1100 system equipped with absorption and fluorescence detectors and refrigerated autosampler (4 °C). The samples (50 µL) were injected into a reverse phase column (Phenomenex, Kinetex C18, 100 mm × 4.6 mm, 2.6 µm) equilibrated with 20% acetonitrile and 80% water containing 0.1% trifluoroacetic acid. The compounds were eluted by increasing the content of acetonitrile from 20 to 56% over 4.5 min at a flow rate of 1.5 mL/min. The absorption detector was used to measure 3,8-diamino-6-phenylphenanthridine (at 290 nm; retention time: 2.5 min), HE-E^+ (at 290 nm; retention time: 4.1 min), E^+-E^+ (at 290 nm; retention time: 4.3 min), and HE (at 370 nm; retention time: 1.6 min). A fluorescence detector (initial excitation at 358 nm and emission at 440 nm) was used to monitor HE (when present at low concentrations). At 2.3 min after injection, the fluorescence parameters were changed (excitation at 490 nm and emission at 567 nm) for sensitive detection of 2-OH-E^+ (retention time: 3.2 min) and E^+ (retention time: 3.3 min).

[2] = tested on: MiaPaCa-2 cells; experiment: Cell proliferation (cell confluence), IncuCyte Live-Cell Analysis System; format: cell-based, human; conditions: for IC50: Homo sapiens; for Inhibition of cell proliferation in combination with Mito-PEG5-ATO (combination index): combined with Mito-PEG5-ATO; for % changes of IC50 with vs without Mito-PEG5-ATO: heat map Fig. 7d
Procedure: The following cell lines were obtained from the American Type Culture Collection (Manassas, VA), where they were regularly authenticated: MiaPaCa-2 (ATCC Cat# CRL-1420, human pancreatic cancer cells), U87MG (ATCC Cat# HTB-14, human brain cancer cells), A549 (ATCC Cat# CCL-185, lung cancer cells), and HCT-116 (ATCC Cat# CCL-247, colon cancer cells). All cell lines were grown at 37 °C in 5% carbon dioxide. MiaPaCa-2 cells were maintained in Dulbecco's Modified Eagle Medium (Thermo Fisher Scientific, Waltham, MA; Cat# 11965) supplemented with 10% fetal bovine serum. U87MG, A549, and HCT-116 cells were maintained in RPMI 1640 medium (Thermo Fisher Scientific, Cat# 11875), supplemented with 10% fetal bovine serum. All cells were stored in liquid nitrogen and used within 20 passages after thawing.
The IncuCyte Live-Cell Analysis System was used to monitor cell proliferation[3],[33],[67]. As shown in previous publications[3],[67], this imaging system is probe-free and noninvasive, and enables continuous monitoring of cell confluence over several days. The increase in the percentage of cell confluence was used as a surrogate marker of cell proliferation. In a 96-well plate, cells were plated at 1,000 cells per well in triplicates and left to adhere overnight. Cells were then treated with Mito-PEG-ATO analogs, and the cell confluency was recorded over several days in the IncuCyte Live-Cell Analysis System.

[3] = tested on: MiaPaCa-2 cells; experiment: Intracellular ATP, luciferase-based assay; format: cell-based, human; conditions: Mito-PEG5-ATO 0 µM, 24 h
Procedure: After seeding cells overnight at 2 × 10^4 per well in 96-well plates, cells were treated for 24 h. Intracellular ATP levels were determined in cell lysates using a luciferase-based assay per the manufacturer’s instructions (cat# FLAA, Sigma Aldrich, St. Louis, MO). In brief, the assay starts by rapidly adding an ATP assay mix solution (luciferase and luciferin solution, cat# FLAAM) to cell lysates. This is swirled briskly to mix, and the amount of light produced is immediately measured with a luminometer. The results were normalized to the total protein level measured in each well, as determined by the Bradford method (Bio-Rad Laboratories, Hercules, CA).

[4] = tested on: mitochondrial respiration (OCR) in intact MiaPaCa-2 cells; experiment: Intact cell mitochondrial respiration (basal OCR), Seahorse XF-96; format: cell-based, human
Procedure: (§1) Mitochondrial oxygen consumption was measured using the Seahorse XF-96 Extracellular Flux Analyzer (Agilent, North Billerica, MA)[3],[33],[67],[68]. To determine the intact cell mitochondrial function of MiaPaCa-2 cells in response to Mito-PEG-ATO analogs, we used the bioenergetic function assay previously described[2],[3]. […] From these measurements, indices of mitochondrial function were determined as previously described[2],[3]. For mitochondrial complex activities assays, after cells were treated with Mito-PEG-ATO analogs for 24 h, the OCR-based assessment of mitochondrial complex activities was carried out on acutely permeabilized cells in the presence of different mitochondrial substrates, i.e., pyruvate/malate for complex I and duroquinol for complex III[3],[32],[34],[69]. Rotenone, malonate, and antimycin A (Sigma-Aldrich, St. Louis, MO) were used as specific inhibitors of mitochondrial complexes I, II, and III, respectively. Briefly, cells that were intact after treatments were immediately permeabilized using the Seahorse XF Plasma Membrane Permeabilizer (Agilent). The mitochondrial complex I-induced OCR was assayed in mannitol and sucrose buffer[69] containing 10 mM pyruvate and 1.5 mM malate (substrates for complex I) and 10 mM malonate (which inhibits complex II activities). The mitochondrial complex III-driven OCR was assayed in a mannitol and sucrose buffer containing 0.5 mM duroquinol (substrate for complex III) as well as 1 µM rotenone and 10 mM malonate (which inhibit both complex I and II activities). The IC50 values were determined as previously reported.

[5] = target: mitochondrial complex III (MiaPaCa-2 cells) (Homo sapiens, UniProt P00156); experiment: Complex III-dependent oxygen consumption in permeabilized cells, Seahorse XF-96; format: cell-based
Chain of mitochondrial complex III (MiaPaCa-2 cells) (P00156 whole entry): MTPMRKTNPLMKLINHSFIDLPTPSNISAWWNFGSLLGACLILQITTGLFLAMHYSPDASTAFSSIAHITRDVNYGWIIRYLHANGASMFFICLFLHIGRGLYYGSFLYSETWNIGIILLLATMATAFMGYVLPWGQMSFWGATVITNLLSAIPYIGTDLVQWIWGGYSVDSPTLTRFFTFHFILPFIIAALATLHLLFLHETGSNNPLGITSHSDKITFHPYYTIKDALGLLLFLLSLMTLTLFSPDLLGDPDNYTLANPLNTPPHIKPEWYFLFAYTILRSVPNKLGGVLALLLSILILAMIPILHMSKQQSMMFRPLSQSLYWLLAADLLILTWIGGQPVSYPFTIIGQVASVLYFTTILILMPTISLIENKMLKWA
Chain of mitochondrial complex III (MiaPaCa-2 cells) (P47985 whole entry partner): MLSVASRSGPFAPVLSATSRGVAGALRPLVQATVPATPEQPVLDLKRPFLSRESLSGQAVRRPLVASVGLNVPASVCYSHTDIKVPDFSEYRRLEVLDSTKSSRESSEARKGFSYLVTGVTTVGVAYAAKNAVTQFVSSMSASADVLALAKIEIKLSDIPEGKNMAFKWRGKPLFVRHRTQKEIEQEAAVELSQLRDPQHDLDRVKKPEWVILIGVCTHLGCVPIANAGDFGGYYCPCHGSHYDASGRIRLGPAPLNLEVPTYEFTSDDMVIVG
Procedure: as §1

[6] = MIA PaCa-2, MiaPaCa-2 cells, inhibitor alone, control ~90% confluence, read-out: IC50 (cell proliferation) without Mito-PEG5-ATO

CCOC(=O)Oc1c(OC)cc(C(=O)O[C@@H]2C[C@@H]3CN4CCc5c([nH]c6cc(OC)ccc56)[C@H]4C[C@@H]3[C@H](C(=O)OC)[C@H]2OC)cc1OC [syrosingopine]
Intracellular oxidant-induced HE-derived products, in combination with Mito-PEG5-ATO [1]: modest and additive increase | IC50 [2, 6]: 8000 nM | Inhibition of cell proliferation in combination with Mito-PEG5-ATO (combination index) ([2]; MiaPaCa-2 cells): Synergistic inhibition | % changes of IC50 with vs without Mito-PEG5-ATO ([2]; MiaPaCa-2 cells): 53.8% | intracellular ATP level ([3]; syrosingopine 1 µM): 29.40 nmol ATP/mg protein | intracellular ATP level ([3]; syrosingopine 3 µM): 30.31 nmol ATP/mg protein | intracellular ATP level ([3]; syrosingopine 4 µM): 29.92 nmol ATP/mg protein | intracellular ATP level ([3]; syrosingopine 5 µM): 30.42 nmol ATP/mg protein | intracellular ATP level ([3]; syrosingopine 6 µM): 30.16 nmol ATP/mg protein | intracellular ATP level ([3]; syrosingopine 7 µM): 31.07 nmol ATP/mg protein | intracellular ATP level ([3]; syrosingopine 8 µM): 31.92 nmol ATP/mg protein | intracellular ATP level ([3]; syrosingopine 9 µM): 32.59 nmol ATP/mg protein | intracellular ATP level ([3]; syrosingopine 10 µM): 32.30 nmol ATP/mg protein | intracellular ATP level ([3]; syrosingopine 15 µM): 33.63 nmol ATP/mg protein | intracellular ATP level ([3]; syrosingopine 20 µM): 30.18 nmol ATP/mg protein

O=C(O)CCCCC(CCSCc1ccccc1)SCc1ccccc1 (stereo not shown) [CPI-613, reference compound]
Intracellular oxidant-induced HE-derived products, in combination with Mito-PEG5-ATO [1]: modest and additive increase | IC50 [2, 6]: 197000 nM | Inhibition of cell proliferation, alone ([2]; MiaPaCa-2 cells, 200 µM): only moderately inhibited cell proliferation | Inhibition of cell proliferation in combination with Mito-PEG5-ATO (combination index) ([2]; MiaPaCa-2 cells): synergistically inhibited cell proliferation | % changes of IC50 with vs without Mito-PEG5-ATO ([2]; MiaPaCa-2 cells): 38.6%

O=C1C(OCCOCCOCCOCCOCCOCCOCCOCCOCC[P+](c2ccccc2)(c2ccccc2)c2ccccc2)=C([C@H]2CC[C@H](c3ccc(Cl)cc3)CC2)C(=O)c2ccccc21.[Br-] [Mito-PEG9-ATO, (26-((3-(trans-4-(4-chlorophenyl)cyclohexyl)-1,4-dioxo-1,4-dihydronaphthalen-2-yl)oxy)-3,6,9,12,15,18,21,24-octaoxahexacosyl)triphenylphosphonium bromide]
IC50 ([2]; MIA PaCa-2, read-out: IC50, inhibition of cell proliferation): 160 nM | Cell confluence (% of control) ([2]; MiaPaCa-2 cells, 0.01 µM, control ~90% confluence): 99.63 % of control | Cell confluence (% of control) ([2]; MiaPaCa-2 cells, 0.03 µM, control ~90% confluence): 99.03 % of control | Cell confluence (% of control) ([2]; MiaPaCa-2 cells, 0.1 µM, control ~90% confluence): 81.02 % of control | Cell confluence (% of control) ([2]; MiaPaCa-2 cells, 0.15 µM, control ~90% confluence): 60.68 % of control | Cell confluence (% of control) ([2]; MiaPaCa-2 cells, 0.2 µM, control ~90% confluence): 25.97 % of control | Cell confluence (% of control) ([2]; MiaPaCa-2 cells, 0.25 µM, control ~90% confluence): 14.32 % of control | Cell confluence (% of control) ([2]; MiaPaCa-2 cells, 0.3 µM, control ~90% confluence): 10.81 % of control | Cell confluence (% of control) ([2]; MiaPaCa-2 cells, 0.4 µM, control ~90% confluence): 7.81 % of control | Cell confluence (% of control) ([2]; MiaPaCa-2 cells, 0.5 µM, control ~90% confluence): 5.89 % of control | Cell confluence (% of control) ([2]; MiaPaCa-2 cells, 1 µM, control ~90% confluence): 4.84 % of control | Cell confluence (% of control) ([2]; MiaPaCa-2 cells, 5 µM, control ~90% confluence): 3.30 % of control | OCR (pmol/min/µg protein) ([4]; 0.01 µM, 24 h treatment, intact MiaPaCa-2 cells, baseline OCR, mean, n=4): 13.41 pmol/min/µg protein | OCR (basal, intact cell mitochondrial respiration) ([4]; 0.03 µM, 24 h treatment, intact MiaPaCa-2 cells, mean, n=4): 12.24 pmol/min/µg protein | OCR (basal, intact cell mitochondrial respiration) ([4]; 0.1 µM, 24 h treatment, intact MiaPaCa-2 cells, mean, n=4): 7.60 pmol/min/µg protein | OCR (basal, intact cell mitochondrial respiration) ([4]; 0.2 µM, 24 h treatment, intact MiaPaCa-2 cells, mean, n=4): 3.64 pmol/min/µg protein | OCR (basal, intact cell mitochondrial respiration) ([4]; 0.3 µM, 24 h treatment, intact MiaPaCa-2 cells, mean, n=4): 1.87 pmol/min/µg protein | OCR (basal, intact cell mitochondrial respiration) ([4]; 0.4 µM, 24 h treatment, intact MiaPaCa-2 cells, mean, n=4): 1.43 pmol/min/µg protein | OCR (basal, intact cell mitochondrial respiration) ([4]; 0.5 µM, 24 h treatment, intact MiaPaCa-2 cells, mean, n=4): 1.22 pmol/min/µg protein | OCR (basal, intact cell mitochondrial respiration) ([4]; 1 µM, 24 h treatment, intact MiaPaCa-2 cells, mean, n=4): 1.18 pmol/min/µg protein | OCR (basal, intact cell mitochondrial respiration) ([4]; 3 µM, 24 h treatment, intact MiaPaCa-2 cells, mean, n=4): 0.96 pmol/min/µg protein | OCR (basal, intact cell mitochondrial respiration) ([4]; 5 µM, 24 h treatment, intact MiaPaCa-2 cells, mean, n=4): 0.01 pmol/min/µg protein | IC50 ([4]; Homo sapiens, MIA PaCa-2, 24 h, read-out: IC50, inhibition of basal OCR in intact cells): 110 nM | Complex III activity (OCR, % of control) ([5]; 0.003 µM): 101.6 % of control | Complex III activity (OCR, % of control) ([5]; 0.01 µM): 95.6 % of control | Complex III activity (OCR, % of control) ([5]; 0.03 µM): 96.5 % of control | Complex III activity (OCR, % of control) ([5]; 0.05 µM): 100.1 % of control | Complex III activity (OCR, % of control) ([5]; 0.1 µM): 95.3 % of control | Complex III activity (OCR, % of control) ([5]; 0.2 µM): 93.6 % of control | Complex III activity (OCR, % of control) ([5]; 0.3 µM): 92.1 % of control | Complex III activity (OCR, % of control) ([5]; 0.4 µM): 72.1 % of control | Complex III activity (OCR, % of control) ([5]; 0.5 µM): 48.1 % of control | Complex III activity (OCR, % of control) ([5]; 0.75 µM): 16.6 % of control | Complex III activity (OCR, % of control) ([5]; 1 µM): 4.7 % of control | IC50 ([5]; MiaPaCa-2 cells, 24 h treatment, antimycin A-inhibitable OCR, read-out: IC50, complex III-induced oxygen consumption (Complex III activity)): 500 nM
